From patent US11814367B2, “Inhibitors of glycogen synthase 1 (GYS1) and methods of use thereof” (Maze Therapeutics, Inc., priority 2021, dated 2023)

Key:
[1] = target: hGYS2 enzyme (recombinant hGYS2/GN1 protein) (Homo sapiens (Human), UniProt P54840); assay: GYS2 coupled enzyme assay (PK/LDH); assay type: biochemical; conditions: geometric mean of at least 2 assay runs on separate days, read-out: Avg_IC50
Summary of the method: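 Continuous PK/LDH-coupled readout of NADH loss at 340 nm over 10 min, with 200 nM hGYS2/GN1 and 2 mM each of UDP-glucose, glucose-6-phosphate and PEP, in 50 mM Tris pH 7.5 with 0.2% glycogen and 2.5% DMSO. Slopes were normalized to controls and IC50s fit to a Hill curve from duplicates.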

[2] = system: hGYS1 enzyme / glycogen synthesis in HeLa cells; assay: GYS1 cell based assay (glycogen synthesis, Glucose-glo); parameters: species or system human; conditions: Homo sapiens, HeLa, 24 h, 24 h incubation, 20 mM glucose, geometric mean of at least 2 runs
Summary of the method: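 HeLa cells starved 24 h in medium containing only 1× Glutamax were plated onto compound in medium with 20 mM glucose (1% DMSO final) for 24 h, 37 °C, 5% CO2. Acid lysates were Tris-quenched, glucoamylase-digested (pH 5.3, 1 h, 37 °C) and read by Glucose-glo luminescence. IC50 came from Hill fits, as geometric mean of ≥2 runs.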

[3] = target: hGYS1 enzyme (recombinant hGYS1/GN1 protein) (Homo sapiens (Human), UniProt P13807); assay: GYS1 coupled enzyme assay (PK/LDH); assay type: biochemical; conditions: hGYS1/GN1 50 nM, UDP-Glucose 0.8 mM, G6P 1 mM; geometric mean of at least 2 runs
Chain of hGYS1 enzyme (recombinant hGYS1/GN1 protein) (P13807 whole entry): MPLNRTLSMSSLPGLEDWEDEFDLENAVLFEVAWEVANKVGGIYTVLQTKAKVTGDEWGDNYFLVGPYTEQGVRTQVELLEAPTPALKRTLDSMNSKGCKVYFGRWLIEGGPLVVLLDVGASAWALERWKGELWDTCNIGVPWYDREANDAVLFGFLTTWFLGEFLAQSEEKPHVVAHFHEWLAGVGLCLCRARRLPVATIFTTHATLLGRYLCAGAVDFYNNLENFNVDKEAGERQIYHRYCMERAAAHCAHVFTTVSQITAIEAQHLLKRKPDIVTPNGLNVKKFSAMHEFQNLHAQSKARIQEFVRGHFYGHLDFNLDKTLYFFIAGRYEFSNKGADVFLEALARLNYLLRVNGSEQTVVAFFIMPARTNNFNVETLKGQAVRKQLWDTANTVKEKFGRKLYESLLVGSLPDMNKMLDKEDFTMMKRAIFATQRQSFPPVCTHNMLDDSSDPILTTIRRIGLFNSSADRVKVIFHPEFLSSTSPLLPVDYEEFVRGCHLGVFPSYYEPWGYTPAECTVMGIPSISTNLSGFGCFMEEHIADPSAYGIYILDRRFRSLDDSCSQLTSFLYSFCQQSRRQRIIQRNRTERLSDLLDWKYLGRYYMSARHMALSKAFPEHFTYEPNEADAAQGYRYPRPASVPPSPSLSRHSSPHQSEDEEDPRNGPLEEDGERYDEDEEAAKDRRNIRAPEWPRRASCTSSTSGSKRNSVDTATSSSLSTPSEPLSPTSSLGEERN
Chain of hGYS1 enzyme (recombinant hGYS1/GN1 protein) (P46976 whole entry partner): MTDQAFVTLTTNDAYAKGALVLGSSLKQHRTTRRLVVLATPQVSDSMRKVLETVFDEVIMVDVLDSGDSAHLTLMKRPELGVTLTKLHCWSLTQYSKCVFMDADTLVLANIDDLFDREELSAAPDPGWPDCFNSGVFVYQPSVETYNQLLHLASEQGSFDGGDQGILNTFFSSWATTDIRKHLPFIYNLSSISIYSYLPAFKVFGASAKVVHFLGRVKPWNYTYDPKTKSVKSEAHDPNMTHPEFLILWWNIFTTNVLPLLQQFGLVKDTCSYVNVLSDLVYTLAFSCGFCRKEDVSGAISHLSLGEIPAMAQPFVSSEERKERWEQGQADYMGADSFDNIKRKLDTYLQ

Chain of hGYS2 enzyme (recombinant hGYS2/GN1 protein) (P54840 whole entry): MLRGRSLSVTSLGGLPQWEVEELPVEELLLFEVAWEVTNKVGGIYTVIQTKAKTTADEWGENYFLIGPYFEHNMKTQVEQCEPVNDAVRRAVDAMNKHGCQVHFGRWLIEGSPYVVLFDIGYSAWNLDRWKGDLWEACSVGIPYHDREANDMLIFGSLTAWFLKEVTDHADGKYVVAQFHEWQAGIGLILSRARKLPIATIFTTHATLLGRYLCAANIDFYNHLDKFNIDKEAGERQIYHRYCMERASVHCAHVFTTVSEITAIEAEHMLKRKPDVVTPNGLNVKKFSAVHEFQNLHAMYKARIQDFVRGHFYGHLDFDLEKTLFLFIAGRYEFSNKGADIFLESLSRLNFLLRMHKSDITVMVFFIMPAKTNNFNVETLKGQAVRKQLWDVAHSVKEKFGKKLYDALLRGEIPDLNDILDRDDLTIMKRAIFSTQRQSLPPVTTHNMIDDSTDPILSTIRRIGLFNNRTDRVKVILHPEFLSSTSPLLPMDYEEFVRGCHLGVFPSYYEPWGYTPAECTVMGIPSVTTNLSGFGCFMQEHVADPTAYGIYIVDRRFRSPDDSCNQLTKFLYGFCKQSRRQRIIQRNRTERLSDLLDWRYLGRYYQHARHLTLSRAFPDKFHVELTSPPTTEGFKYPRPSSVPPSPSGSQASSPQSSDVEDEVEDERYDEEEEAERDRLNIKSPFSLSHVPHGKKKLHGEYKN
Chain of hGYS2 enzyme (recombinant hGYS2/GN1 protein) (P46976 whole entry partner): as the sequence (P46976 whole entry partner) above

| IC50 [1] | IC50 [2] | IC50 [3] | SMILES |
| --- | --- | --- | --- |
| > 100000 nM | 310 nM | 15 nM | O=C(N[C@@H](c1ccccc1)c1ccc(C2CC2)c(F)n1)[C@@H]1C[C@@H](F)CN1C(=O)Cn1nccc1C(F)F [Compound 725, (2S,4R)-N-[(S)-(5-cyclopropyl-6-fluoropyridin-2-yl)(phenyl)methyl]-1-{2-[5-(difluoromethyl)-1H-pyrazol-1-yl]acetyl}-4-fluoropyrrolidine-2-carboxamide] |
| > 100000 nM | 720 nM | 49 nM | CN(C)c1cnn(CC(=O)N2C[C@H](F)C[C@H]2C(=O)N[C@@H](c2ccccc2)c2ccc(C3CC3)c(F)c2)n1 [Compound 483, (2S,4R)-N-[(S)-(4-cyclopropyl-3-fluorophenyl)(phenyl)methyl]-1-{2-[4-(dimethylamino)-2H-1,2,3-triazol-2-yl]acetyl}-4-fluoropyrrolidine-2-carboxamide] |
| > 100000 nM | 2090 nM | 119 nM | CC1(c2ccc([C@@H](NC(=O)[C@@H]3C[C@@H](F)CN3C(=O)Cn3nnc4ccccc43)c3ccccc3)cc2F)CC1 [Compound 575, (2S,4R)-1-[2-(1H-1,2,3-benzotriazol-1-yl)acetyl]-4-fluoro-N-[(S)-[3-fluoro-4-(1-methylcyclopropyl)phenyl](phenyl)methyl]pyrrolidine-2-carboxamide] |
| > 100000 nM | 150 nM | 7 nM | CC(C)c1ccc([C@@H](NC(=O)[C@@H]2C[C@@H](F)CN2C(=O)CNC(=O)N(C)C)c2ccccc2)nc1F [Compound 394, (2S,4R)-1-{2-[(dimethylcarbamoyl)amino]acetyl}-4-fluoro-N-[(S)-[6-fluoro-5-(propan-2-yl)pyridin-2-yl](phenyl)methyl] pyrrolidine-2-carboxamide] |
| > 100000 nM | 2330 nM | 73 nM | Cn1c(CC(=O)N2C[C@H](F)C[C@H]2C(=O)N[C@@H](c2ccccc2)c2ccc(C3CC3)c(F)n2)n[nH]c1=O [Compound 304, (2S,4R)-N-[(S)-(5-cyclopropyl-6-fluoropyridin-2-yl)(phenyl)methyl]-4-fluoro-1-[2-(4-methyl-5-oxo-4,5-dihydro-1H-1,2,4-triazol-3-yl)acetyl]pyrrolidine-2-carboxamide] |
| > 100000 nM | 1840 nM | 77 nM | O=C(N[C@@H](c1ccccc1)c1ccc(C2CC2)c(F)c1)[C@@H]1C[C@@H](F)CN1C(=O)CN1Cc2ccccc2C1=O [Compound 453, (2S,4R)-N-[(S)-(4-cyclopropyl-3-fluorophenyl)(phenyl)methyl]-4-fluoro-1-[2-(1-oxo-2,3-dihydro-1H-isoindol-2-yl)acetyl] pyrrolidine-2-carboxamide] |
| > 100000 nM | 60 nM | 3 nM | O=C(N[C@@H](c1ccccc1)c1ccc(C2CC(F)(F)C2)c(F)n1)[C@@H]1C[C@@H](F)CN1C(=O)Cn1cnc2ccccc21 [Compound 504, (2S,4R)-1-[2-(1H-1,3-benzodiazol-1-yl)acetyl]-N-[(S)-[5-(3,3-difluorocyclobutyl)-6-fluoropyridin-2-yl](phenyl)methyl]-4-fluoropyrrolidine-2-carboxamide] |
| > 100000 nM | 3620 nM | 291 nM | CN1C(=O)C(CC(=O)N2C[C@H](F)C[C@H]2C(=O)N[C@@H](c2ccccc2)c2ccc(C3CC3)c(F)c2)c2ccccc21 (stereo partly drawn) [Compound 455, (2S,4R)-N-[(S)-(4-cyclopropyl-3-fluorophenyl)(phenyl)methyl]-4-fluoro-1-[2-(1-methyl-2-oxo-2,3-dihydro-1H-indol-3-yl)acetyl]pyrrolidine-2-carboxamide] |
| > 100000 nM | 1370 nM | 27 nM | Cc1cc(CC(=O)N2C[C@H](F)C[C@H]2C(=O)N[C@@H](c2ccccc2)c2ccc(C3CC3)c(F)n2)c[nH]c1=O [Compound 732, (2S,4R)-N-[(S)-(5-cyclopropyl-6-fluoropyridin-2-yl)(phenyl)methyl]-4-fluoro-1-[2-(5-methyl-6-oxo-1,6-dihydropyridin-3-yl)acetyl]pyrrolidine-2-carboxamide] |
| > 100000 nM | 80 nM | 5 nM | CC(C)c1ccc([C@@H](NC(=O)[C@@H]2C[C@@H](F)CN2C(=O)Cn2nccc2C(F)F)c2ccccc2)nc1F [Compound 783, (2S,4R)-1-{2-[5-(difluoromethyl)-1H-pyrazol-1-yl]acetyl}-4-fluoro-N-[(S)-[6-fluoro-5-(propan-2-yl)pyridin-2-yl](phenyl)methyl] pyrrolidine-2-carboxamide] |
| > 100000 nM | 1150 nM | 90 nM | CC(C)c1ccc([C@@H](NC(=O)[C@@H]2C[C@@H](F)CN2C(=O)CN(C)C(=O)N(C)C)c2ccccc2)cc1F [Compound 362, (2S,4R)-1-{2-[(dimethylcarbamoyl) (methyl)amino]acetyl}-4-fluoro-N-[(S)-[3-fluoro-4-(propan-2-yl)phenyl](phenyl)methyl] pyrrolidine-2-carboxamide] |
| > 100000 nM | 270 nM | 24 nM | CC(C)c1ccc([C@@H](NC(=O)[C@@H]2C[C@@H](F)CN2C(=O)Cc2cccnc2)c2ccccc2)cc1F [Compound 348, (2S,4R)-4-fluoro-N-[(S)-[3-fluoro-4-(propan-2-yl)phenyl](phenyl)methyl]-1-[2-(pyridin-3-yl)acetyl]pyrrolidine-2-carboxamide] |
| > 100000 nM | 490 nM | 20 nM | CC(C)c1ccc([C@@H](NC(=O)[C@@H]2C[C@@H](F)CN2C(=O)[C@H](C)NC(=O)N(C)C)c2ccccc2)nc1F [Compound 405, (2S,4R)-1-[(2S)-2-[(dimethylcarbamoyl)amino]propanoyl]-4-fluoro-N-[(S)-[6-fluoro-5-(propan-2-yl)pyridin-2-yl](phenyl)methyl] pyrrolidine-2-carboxamide] |
| > 100000 nM | 150 nM | 5 nM | CCn1c(=O)c(C)cn(CC(=O)N2C[C@H](F)C[C@H]2C(=O)N[C@@H](c2ccccc2)c2ccc(C3CC3)c(F)n2)c1=O [Compound 733, (2S,4R)-N-[(S)-(5-cyclopropyl-6-fluoropyridin-2-yl)(phenyl)methyl]-1-[2-(3-ethyl-5-methyl-2,4-dioxo-1,2,3,4-tetrahydropyrimidin-1-yl)acetyl]-4-fluoropyrrolidine-2-carboxamide] |
| > 100000 nM | 460 nM | 25 nM | CC1(c2ccc([C@@H](NC(=O)[C@@H]3C[C@@H](F)CN3C(=O)Cn3cnc4ccccc43)c3ccccc3)nc2F)CC1 [Compound 595, (2S,4R)-1-[2-(1H-1,3-benzodiazol-1-yl)acetyl]-4-fluoro-N-[(S)-[6-fluoro-5-(1-methylcyclopropyl)pyridin-2-yl](phenyl)methyl] pyrrolidine-2-carboxamide] |
| > 100000 nM | 3290 nM | 333 nM | Cc1nc(C(NC(=O)[C@@H]2C[C@@H](F)CN2C(=O)Cc2cnn[nH]2)c2ccccc2)ccc1C(C)C (single isomer, unassigned) [Compound 607, (2S,4R)-4-fluoro-N-[(S) or (R)-[6-methyl-5-(propan-2-yl)pyridin-2-yl](phenyl)methyl]-1-[2-(1H-1,2,3-triazol-5-yl)acetyl]pyrrolidine-2-carboxamide] |
